Measurements as given in patent US20230114728A1 (Venatorx Pharmaceuticals, Inc., priority 2019, published 2023).
Converted amounts (≈) assume the structure as drawn.

What was measured:
Test in all cases: Broth microdilution MIC in CAMHB
Type in all cases: cell-based
[1] = tested on: E. coli AG100; settings: Escherichia coli; E. coli AG100 (wild-type parent); MHB; read-out: Minimum Inhibitory Concentration, E. coli AG100
Method in brief: (§1)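 Colonies from cation-adjusted Mueller Hinton agar are grown in broth (3-5 h, 37° C), adjusted by OD600, and added at 2-8×10^5 CFU/mL to 2-fold compound dilutions. After 16-20 h at 37° C, the lowest concentration without growth is taken as MIC.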

[2] = tested on: E. coli AG100A; settings: Escherichia coli, read-out: Minimum Inhibitory Concentration, E. coli AG100A
Method in brief: as §1

[3] = tested on: A. baumannii ATCC 19606; settings: Acinetobacter baumannii, ATCC19606; MHB; read-out: Minimum Inhibitory Concentration, A. baumannii ATCC 19606
Method in brief: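 Per CLSI broth microdilution, colonies were grown 3-5 h at 37° C in cation-adjusted Mueller Hinton broth, then diluted to a starting inoculum of 2-8×10^5 CFU/mL against 2-fold serial compound dilutions. Plates were incubated 16-20 h at 37° C, and MIC was read visually as the lowest concentration with no growth.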

[4] = tested on: K. pneumoniae UMM producing SHV-5 and KPC-2; settings: Klebsiella pneumoniae, read-out: Minimum Inhibitory Concentration, K. pneumoniae UMM
Method in brief: as §1

[5] = tested on: P. aeruginosa (ΔmexAB-oprM); settings: Pseudomonas aeruginosa, read-out: Minimum Inhibitory Concentration, P. aeruginosa ΔmexAB-OprM
Method in brief: as §1

[6] = tested on: E. coli D22; settings: Escherichia coli; E. coli D22 (hyper-permeable); MHB; read-out: Minimum Inhibitory Concentration, E. coli D22
Method in brief: as §1

[7] = tested on: P. aeruginosa ATCC 35151; settings: Pseudomonas aeruginosa, ATCC35151; MHB; hyper-permeable strain; read-out: Minimum Inhibitory Concentration, P. aeruginosa ATCC 35151
Method in brief: as §1

[8] = tested on: K. pneumoniae SI-117 producing VIM-1; settings: Klebsiella pneumoniae, read-out: Minimum Inhibitory Concentration, K. pneumoniae SI-117
Method in brief: as §1

[9] = tested on: P. aeruginosa ATCC 27853; settings: Pseudomonas aeruginosa, ATCC27853; MHB; read-out: Minimum Inhibitory Concentration, P. aeruginosa ATCC 27853
Method in brief: as §1

[10] = tested on: K. pneumoniae 848844 producing SHV-11 and KPC-2; settings: Klebsiella pneumoniae, read-out: Minimum Inhibitory Concentration, K. pneumoniae 848844
Method in brief: as §1

[11] = tested on: E. coli 901C; settings: Escherichia coli; E. coli 901C (hyper-permeable); MHB; read-out: Minimum Inhibitory Concentration, E. coli 901C
Method in brief: as §1

[12] = tested on: E. coli ATCC 25922; settings: Escherichia coli, ATCC25922; E. coli ATCC 25922; MHB; read-out: Minimum Inhibitory Concentration, E. coli 25922
Method in brief: as §1

NCCN1CCN(C(=O)N[C@@H](C(=O)N[C@H]2Cc3cccc(C(=O)O)c3OB2O)c2c(O)cc(O)cc2F)C(=O)C1=O (single isomer, unassigned) [Example 194] gave an MIC [1] of 8 to 16 µg/mL (≈ 14 to 27.9 µM), an MIC [2] of 2 to 4 µg/mL (≈ 3.49 to 6.98 µM) and an MIC [3] of 32 to 64 µg/mL (≈ 55.8 to 112 µM). The MIC [4] was 8 to 16 µg/mL (≈ 14 to 27.9 µM), the MIC [5] was 8 to 16 µg/mL (≈ 14 to 27.9 µM) and the MIC [6] was 2 to 4 µg/mL (≈ 3.49 to 6.98 µM). For the same compound, the MIC [7] was 0.5 to 1 µg/mL (≈ 0.872 to 1.74 µM), the MIC [8] was 32 to 64 µg/mL (≈ 55.8 to 112 µM) and the MIC [9] was > 128 µg/mL. The MIC [10] was 32 to 64 µg/mL (≈ 55.8 to 112 µM), the MIC [11] was 0.5 to 1 µg/mL (≈ 0.872 to 1.74 µM) and the MIC [12] was 8 to 16 µg/mL (≈ 14 to 27.9 µM).

In the case of NCCCN1CCN(C(=O)N[C@@H](C(=O)N[C@H]2Cc3cccc(C(=O)O)c3OB2O)c2c(O)cc(O)cc2F)C(=O)C1=O (single isomer, unassigned) [Example 195], the MIC [1] is reported as 8 to 16 µg/mL (≈ 13.6 to 27.2 µM), the MIC [2] is reported as 2 to 4 µg/mL (≈ 3.41 to 6.81 µM) and the MIC [3] is reported as 32 to 64 µg/mL (≈ 54.5 to 109 µM). For the same compound, the MIC [4] was 8 to 16 µg/mL (≈ 13.6 to 27.2 µM), the MIC [5] was 8 to 16 µg/mL (≈ 13.6 to 27.2 µM) and the MIC [6] was 2 to 4 µg/mL (≈ 3.41 to 6.81 µM). The MIC [7] was 0.5 to 1 µg/mL (≈ 0.851 to 1.7 µM), the MIC [8] was 32 to 64 µg/mL (≈ 54.5 to 109 µM) and the MIC [9] was > 128 µg/mL. It also gave an MIC [10] of 32 to 64 µg/mL (≈ 54.5 to 109 µM), an MIC [11] of 0.5 to 1 µg/mL (≈ 0.851 to 1.7 µM) and an MIC [12] of 8 to 16 µg/mL (≈ 13.6 to 27.2 µM).

With NCCN1CCN(C(=O)N[C@@H](C(=O)N[C@H]2Cc3cccc(C(=O)O)c3OB2O)c2ccc(O)c([N+](=O)[O-])c2)C(=O)C1=O (single isomer, unassigned) [Example 199] the MIC [1] was > 128 µg/mL, the MIC [2] was 2 to 4 µg/mL (≈ 3.42 to 6.85 µM) and the MIC [3] was > 128 µg/mL. For the same compound, the MIC [4] was > 128 µg/mL, the MIC [5] was 8 to 16 µg/mL (≈ 13.7 to 27.4 µM) and the MIC [6] was 8 to 16 µg/mL (≈ 13.7 to 27.4 µM). For the same compound, the MIC [7] was 0.5 to 1 µg/mL (≈ 0.856 to 1.71 µM), the MIC [8] was > 128 µg/mL and the MIC [9] was > 128 µg/mL. For the same compound, the MIC [10] was > 128 µg/mL, the MIC [11] was 0.5 to 1 µg/mL (≈ 0.856 to 1.71 µM) and the MIC [12] was 32 to 64 µg/mL (≈ 54.8 to 110 µM).

For NCCN1CCN(C(=O)N[C@H](C(=O)N[C@H]2Cc3cccc(C(=O)O)c3OB2O)c2ccc(O)c([N+](=O)[O-])c2)C(=O)C1=O (single isomer, unassigned) [Example 200], the MIC [1] was > 128 µg/mL, the MIC [2] was 32 to 64 µg/mL (≈ 54.8 to 110 µM) and the MIC [3] was > 128 µg/mL. The MIC [4] was > 128 µg/mL, the MIC [5] was > 128 µg/mL and the MIC [6] was > 128 µg/mL. For the same compound, the MIC [7] was 2 to 4 µg/mL (≈ 3.42 to 6.85 µM), the MIC [8] was > 128 µg/mL and the MIC [9] was > 128 µg/mL. For the same compound, the MIC [10] was > 128 µg/mL, the MIC [11] was 8 to 16 µg/mL (≈ 13.7 to 27.4 µM) and the MIC [12] was > 128 µg/mL.

CCN1CCN(C(=O)N[C@H](C(=O)N[C@H]2Cc3cccc(C(=O)O)c3OB2O)c2ccc(C(=O)O)c(F)c2Cl)C(=O)C1=O (single isomer, unassigned) [Example 202] was tested, and the MIC [1] was > 128 µg/mL, the MIC [2] was 32 to 64 µg/mL (≈ 52.9 to 106 µM) and the MIC [3] was > 128 µg/mL. The MIC [4] was > 128 µg/mL, the MIC [5] was > 128 µg/mL and the MIC [6] was 8 to 16 µg/mL (≈ 13.2 to 26.5 µM). The MIC [7] was 2 to 4 µg/mL (≈ 3.31 to 6.61 µM), the MIC [8] was > 128 µg/mL and the MIC [9] was > 128 µg/mL. The MIC [10] was > 128 µg/mL, the MIC [11] was 0.5 to 1 µg/mL (≈ 0.827 to 1.65 µM) and the MIC [12] was > 128 µg/mL.

In the case of CCN1CCN(C(=O)N[C@@H](C(=O)N[C@H]2Cc3cccc(C(=O)O)c3OB2O)c2ccc(C(=O)O)c(F)c2Cl)C(=O)C1=O (single isomer, unassigned) [Example 203], the MIC [1] is reported as 32 to 64 µg/mL (≈ 52.9 to 106 µM), the MIC [2] is reported as 8 to 16 µg/mL (≈ 13.2 to 26.5 µM) and the MIC [3] is reported as > 128 µg/mL. The MIC [4] was 32 to 64 µg/mL (≈ 52.9 to 106 µM), the MIC [5] was 8 to 16 µg/mL (≈ 13.2 to 26.5 µM) and the MIC [6] was 2 to 4 µg/mL (≈ 3.31 to 6.61 µM). For the same compound, the MIC [7] was 0.5 to 1 µg/mL (≈ 0.827 to 1.65 µM), the MIC [8] was > 128 µg/mL and the MIC [9] was > 128 µg/mL. The MIC [10] was > 128 µg/mL, the MIC [11] was < 0.25 µg/mL and the MIC [12] was > 128 µg/mL.

With NCCN1CCN(C(=O)N[C@H](C(=O)N[C@H]2Cc3cccc(C(=O)O)c3OB2O)c2c(F)cccc2F)C(=O)C1=O (single isomer, unassigned) [Example 204] the MIC [1] was > 128 µg/mL, the MIC [2] was 32 to 64 µg/mL (≈ 57.2 to 114 µM) and the MIC [3] was > 128 µg/mL. For the same compound, the MIC [4] was > 128 µg/mL, the MIC [5] was > 128 µg/mL and the MIC [6] was > 128 µg/mL. The MIC [7] was 32 to 64 µg/mL (≈ 57.2 to 114 µM), the MIC [8] was > 128 µg/mL and the MIC [9] was > 128 µg/mL. For the same compound, the MIC [10] was > 128 µg/mL, the MIC [11] was 8 to 16 µg/mL (≈ 14.3 to 28.6 µM) and the MIC [12] was > 128 µg/mL.
